# Assay results taken from US4113856A, “Antibiotic mm 13902” (Beecham Group Limited, priority 1974, dated 1978).
# “Also recorded” adds a separate entry of the source. Structures can show the parent of a compound that is named as a salt.
# Key:
# [1] = test system: Escherichia coli, Klebsiella aerogenes, Proteus mirabilis, Proteus morganii and Staphylococcus aureus Russell; assay: synergy with ampicillin (in words); assay type: cell-based, bacteria (various species); conditions: mixed with ampicillin
# [2] = test system: various species including strains of Staphylococcus aureus, Bacillus subtilis, Escherichia coli, Klebsiella aerogenes, Proteus mirabilis; assay: antibacterial activity against various species (in words); assay type: cell-based, bacteria (various species); conditions: sodium salt
# Enterobacter aerogenes = assay: bioautography zone diameter (Table 4); assay type: cell-based; conditions: TLC cellulose, butanol/isopropyl alcohol/water 7:7:6
# [3] = test system: Staphylococcus aureus(Oxford); assay: bioautography zone diameter (Table 4); assay type: cell-based; conditions: TLC cellulose, butanol/isopropyl alcohol/water 7:7:6
# stability = assay type: physicochemical
# Klebsiella aerogenes [4] = assay: synergy with benzylpenicillin; assay type: cell-based; conditions: extracts from cellulose thin layer
# Description: (§1) In a further experiment, the two substances were separated on a cellulose thin layer developed with isopropanol:water (8:2) and extracted from the cellulose with phosphate buffer.
# [5] = activity in arbitrary units per mg; conditions: Example 3
# Method: The material produced above was arbitrarily assigned an activity of 340 l/ml. Assays were determined as described in Description 3.
# solubility = conditions: sodium salt
# [6] = test system: B. subtilis, Staphylococcus aureus, Escherichia coli, Salmonella typhimurium, Proteus mirabilis, Proteus morganii and Klebsiella aerogenes; assay: detection by bioautography after TLC on cellulose (in words); assay type: cell-based, bacteria (various species)
# Klebsiella aerogenes [7] = assay: bioautography zone diameter (Table 4); assay type: cell-based; conditions: TLC cellulose, butanol/isopropyl alcohol/water 7:7:6
# [8] = test system: Staphylococcus aureus(Russell); assay: bioautography zone diameter (Table 4); assay type: cell-based; conditions: TLC cellulose, butanol/isopropyl alcohol/water 7:7:6
# [9] = test system: Escherichia coli β-lactamase; assay: β-lactamase inhibition (in words); assay type: biochemical
# Description: as §1
# E. coli JT39 = assay: MIC by serial dilution in nutrient agar (Table 2); assay type: cell-based; conditions: ampicillin alone
# Proteus mirabilis 247 = assay: MIC by serial dilution in nutrient agar (Table 2); assay type: cell-based; conditions: ampicillin alone
# Staph.aureus (Russell H) = assay: MIC by serial dilution in nutrient agar (Table 2); assay type: cell-based; conditions: ampicillin alone
# Staph.aureus (Russell) = assay: MIC by serial dilution in nutrient agar (Table 2); assay type: cell-based; conditions: ampicillin alone
# E. coli JT417 = assay: MIC by serial dilution in nutrient agar (Table 2); assay type: cell-based; conditions: ampicillin alone
# [10] = test system: Klebsiella aerogenes IP282; assay: MIC by serial dilution in nutrient agar (Table 2); assay type: cell-based; conditions: ampicillin alone
# Proteus rettgeri R110 = assay: MIC by serial dilution in nutrient agar (Table 2); assay type: cell-based; conditions: ampicillin alone
# Proteus mirabilis 889 = assay: MIC by serial dilution in nutrient agar (Table 2); assay type: cell-based; conditions: ampicillin alone
# Proteus morganii F = assay: MIC by serial dilution in nutrient agar (Table 2); assay type: cell-based; conditions: ampicillin alone
# E. coli B11 = assay: MIC by serial dilution in nutrient agar (Table 2); assay type: cell-based; conditions: ampicillin alone
# trypsin = assay: enzyme inhibition (general enzyme poison check); assay type: biochemical; conditions: at concentrations in excess of those required to inhibit E. coli β-lactamase
# [11] = test system: β-lactamase of Klebsiella aerogenes; assay: β-lactamase inhibition (in words); assay type: biochemical
# urease = assay: enzyme inhibition (general enzyme poison check); assay type: biochemical; conditions: at concentrations in excess of those required to inhibit E. coli β-lactamase
# dopa decarboxylase = assay: enzyme inhibition (general enzyme poison check); assay type: biochemical; conditions: at concentrations in excess of those required to inhibit E. coli β-lactamase
# [12] = test system: β-lactamase of Staphylococcus aureus; assay: β-lactamase inhibition (in words); assay type: biochemical
# Bacillus subtilis = assay: bioautography zone diameter (Table 4); assay type: cell-based; conditions: TLC cellulose, butanol/isopropyl alcohol/water 7:7:6
# monoamine oxidase = assay: enzyme inhibition (general enzyme poison check); assay type: biochemical; conditions: at concentrations in excess of those required to inhibit E. coli β-lactamase
# Escherichia coli 311 = assay: bioautography zone diameter (Table 4); assay type: cell-based; conditions: TLC cellulose, butanol/isopropyl alcohol/water 7:7:6
# carbonic anhydrase = assay: enzyme inhibition (general enzyme poison check); assay type: biochemical; conditions: at concentrations in excess of those required to inhibit E. coli β-lactamase
# Proteus morganii = assay: bioautography zone diameter (Table 4); assay type: cell-based; conditions: TLC cellulose, butanol/isopropyl alcohol/water 7:7:6
# Escherichia coli 10418 = assay: bioautography zone diameter (Table 4); assay type: cell-based; conditions: TLC cellulose, butanol/isopropyl alcohol/water 7:7:6
# chymotrypsin = assay: enzyme inhibition (general enzyme poison check); assay type: biochemical; conditions: at concentrations in excess of those required to inhibit E. coli β-lactamase
smiles,measurement,setting,value
CC(=O)N/C=C/SC1=C(C(=O)O)N2C(=O)C(C(C)OS(=O)(=O)O)C2C1 (centres unmarked) [MM 13902],synergy with ampicillin,[1],synergizes its activity
same,antibacterial activity,[2],possessed antibacterial activity
same,Zone Diameter on Bioautography,Enterobacter aerogenes,No Zone
same,Zone Diameter on Bioautography,[3],4.0 mm
same,stability,stability,tends to be unstable when in the unsalted acid form; also recorded: not sufficiently stable
same,synergy with benzylpenicillin,Klebsiella aerogenes [4],shown to be synergistic with benzylpenicillin
same,activity,"[5]; partially purified salt, brown solid","37,000 units/mg"
same,"solubility in chloroform, diethylether and hydrocarbons",solubility,substantially insoluble
same,solubility in methanol,solubility,soluble
same,solubility in water,solubility,highly soluble
same,detection by bioautography,[6],may be detected by bioautography on a variety of organisms
same,Zone Diameter on Bioautography,Klebsiella aerogenes [7],20.0 mm
same,Zone Diameter on Bioautography,[8],4.0 mm
same,β-lactamase inhibition,[9],shown to be inhibitors
CC(=O)NC=CSC1=C(C(=O)O)N2C(=O)C(C(C)OS(=O)(=O)O)C2C1 (centres unmarked) [monobasic salts of MM 13902],stability,stability,not sufficiently stable
CC1(C)S[C@@H]2[C@H](NC(=O)[C@H](N)c3ccccc3)C(=O)N2[C@H]1C(=O)O [Ampicillin],minimum inhibitory concentration,E. coli JT39,> 500
same,minimum inhibitory concentration,Proteus mirabilis 247,> 500
same,minimum inhibitory concentration,Staph.aureus (Russell H),> 500
same,minimum inhibitory concentration,Staph.aureus (Russell),250
same,minimum inhibitory concentration,E. coli JT417,250
same,minimum inhibitory concentration,[10],50
same,minimum inhibitory concentration,Proteus rettgeri R110,250
same,minimum inhibitory concentration,Proteus mirabilis 889,> 500
same,minimum inhibitory concentration,Proteus morganii F,50
same,minimum inhibitory concentration,E. coli B11,> 500
CC(=O)NC=CSC1=C(C(=O)O)N2C(=O)C(C(C)OS(=O)(=O)O)C2C1 (centres unmarked) [di-sodium salt of MM 13902],activity,"[5]; di-sodium salt after cellulose chromatography, yellowish powder","73,000 units/mg"
CC(=O)N/C=C/[S+]([O-])C1=C(C(=O)O)N2C(=O)C(C(C)OS(=O)(=O)O)C2C1 (centres unmarked) [MM 4550A],inhibition of trypsin,trypsin,does not inhibit
same,β-lactamase inhibition,[11],possesses enzyme inhibitory activity
same,inhibition of urease,urease,does not inhibit
same,inhibition of dopa decarboxylase,dopa decarboxylase,does not inhibit
same,synergy with ampicillin,[1],synergyses its activity
same,β-lactamase inhibition,[12],possesses enzyme inhibitory activity
same,antibacterial activity,[2],possesses antibacterial activity
same,Zone Diameter on Bioautography,Bacillus subtilis,24.0 mm
same,inhibition of monoamine oxidase,monoamine oxidase,does not inhibit
same,Zone Diameter on Bioautography,Enterobacter aerogenes,6.5 mm
same,Zone Diameter on Bioautography,[3],13.0 mm
same,Zone Diameter on Bioautography,Escherichia coli 311,17.5 mm
same,synergy with benzylpenicillin,Klebsiella aerogenes [4],shown to be synergistic with benzylpenicillin
same,inhibition of carbonic anhydrase,carbonic anhydrase,does not inhibit
same,detection by bioautography,[6],may be detected by bioautography on a variety of organisms
same,Zone Diameter on Bioautography,Klebsiella aerogenes [7],20.0 mm
same,Zone Diameter on Bioautography,Proteus morganii,16.0 mm
same,Zone Diameter on Bioautography,[8],12.0 mm
same,Zone Diameter on Bioautography,Escherichia coli 10418,20.0 mm
same,inhibition of chymotrypsin,chymotrypsin,does not inhibit
same,β-lactamase inhibition,[9],possesses enzyme inhibitory activity; also recorded: shown to be inhibitors
